Reference: patent US8663701B2, “Compositions containing ultra-micronized palmitoyl-ethanolamide” (priority 2009, dated 2014)
Values belong to the compound of their own block, whether it stands above or below them.

Key:
[1] = tested on: IL-1 beta, NO2; experiment: Beta-amyloid-induced neuroinflammation; format: in vivo, C57BL/6 mice; settings: for Effect on the levels of the biological parameters considered: IL-1 beta and NO2 in hippocampus; for Hippocampal levels of NO2 / Hippocampal tissue levels of IL-1 beta (with immunofluorescence method) (count of cells immunopositive to THE-1 beta): per os daily for 8 days after beta-amyloid inoculation
Protocol: C57BL/6 mice with age ranging between 3 and 5 months have been used, divided in 3 different groups (20 animals per group). […] The administrations were carried out daily for 8 days successive to the inoculation of the beta-amyloid. The third group was administered with the vehicle alone. After sacrifice of the animal, IL-1 beta and NO2 dose level was measured in the hippocampal homogenate via an immunofluorescence method.
The experimental method described by Esposito et al., Br J Pharmacol. 2007; 151:1272-1279 has been used.

[2] = tested on: protein NGF, protein TNF-alpha; experiment: Carrageenan-induced granuloma; format: in vivo, rat; settings: for Expression of protein NGF in the dorsal root ganglia / Expression of protein NGF in the granulomatous tissue / Expression of protein TNF-alpha in the dorsal root ganglia: 96 hours, 10 mg/Kg oral every 12 hours for 3 days
Protocol: The pharmacological model of granuloma induced, in the rat, by the introduction in the subcutaneous tissue of carrageenan-soaked sponge has been used. The model is described in De Filippis et al., J Cell Mol Med. 2009; 13(6):1086-1095.
The administrations were carried out at time 0 (immediately before the introduction of the sponges), and every 12 hours for 3 consecutive days. The unit doses administered were 10 mg/Kg.
The biochemical parameters relative to pro-algogenic mediators were detected, after sacrifice of the animal occurred after 96 hours from the introduction of the sponges, both in the granulomatous tissue (expression of the protein NGF), and at the level of the dorsal root ganglia (RDG) (expression of the protein TNF-alpha and the protein NGF).

[3] = tested on: TNF-alpha, tissue mast cells; experiment: LPS-induced acute intestinal inflammation; format: in vivo, mouse; settings: 18 hours after LPS
Protocol: (§1) An acute inflammation was induced in the animal by means of intra-peritoneal injection of LPS (lipopolysaccharide): the animals were sacrificed after 18 hours from the LPS administration. Instead, a chronic inflammation at the colon level was induced by administering the animal with DNBS (2,4-Dinitrobenzene sulfonic acid): in this case, the animals were sacrificed after 96 hours from the DNBS administration.
(§2) The level of TNF-alpha and the percent variation in the number of mast cells were assessed on intestinal tissue.

[4] = Concentration of PEA in serum after single oral administration; format: in vivo, Beagle dogs; settings: 15 mg/Kg oral, fasting
[5] = tested on: cutaneous reaction induced by Ascaris suum; experiment: Cutaneous reaction induced by Asc S1 antigen in dogs sensitized to Ascaris suum; format: in vivo, Beagle dog; settings: for Inhibition on the cutaneous reaction induced by Ascaris suum: 10 mg/Kg oral; for Inhibition of the cutaneous reaction: between 1 and 4 hours after treatment
Protocol: Beagle dog spontaneously sensitized to Ascaris suum were used.
A 2% solution of Evans Blue in saline was administered endovenously (0.4 mL/Kg) 30 minutes before the intradermal injection of Asc S1 antigen, so as to be able to visualize the dermal reaction area.
The dermal reaction area was measured 10 minutes after the injection of Asc S1 antigen.

[6] = tested on: neuropathic pain at the lower limbs; experiment: Neuropathic pain in Multiple Sclerosis patients, VAS scale; format: in vivo; settings: for VAS after the treatment of 60 days (average value): tablets
Protocol: The pain intensity was measured with a VAS (Visual Analogue Scale) scale both before and at the end of the treatment with palmitoylethanolamide.

[7] = tested on: TNF-alpha, tissue mast cells; experiment: DNBS-induced chronic intestinal inflammation; format: in vivo, mouse; settings: 96 hours after DNBS
Protocol: as §1, §2

[8] = tested on: TNF-alpha, NGF, NF-kB, IL-1 alpha; experiment: Sciatic nerve ligation (CCI), spinal parameters at day 10; format: in vivo, mouse; settings: for IL-1alpha / NGF / TNF-alpha: spinal area, day 10 after ligation (CCI), per os once per day
Description: After sciatic nerve ligation—CCI (carried out as described by Costa et al., Pain 2008; 139:541-550), a series of altered spinal parameters have been assessed in the mouse, following peripheral damage, and related to the activation of microglial cells induced by the peripheral chronic distress. In particular, TNF-alpha, NGF, NF-kB according to the method described by Costa et al. (see supra), and IL-1 alpha according to the method described by Fiorentino et al., 2008; 58(10):3100-3109 have been measured.
A 0.5% solution in carboxymethyl cellulose has been used as a vehicle.
The measurements of the parameters indicated, above have been carried out at day 10 from the sciatic nerve ligation, after sacrifice of the test animal and sampling of the spinal area.

[9] = tested on: 2-arachidonoylglycerol (2-AG); experiment: Concentration of 2-AG in serum after single oral administration of PEA; format: in vivo, Beagle dogs; settings: for Concentration in serum, 2AG: 15 mg/Kg oral, fasting; for Increase of 2-AG in blood compared to the basal levels: administration per os
Description: Dose measurements in blood have been carried out of 2-arachidonoyl-glycerol (2-AG), an endocannabinoid of great importance in the modulation of the activation of cells capable of expressing the cannabinoid CB2 receptor; this is the case of many cells belonging to the immune system as the microglia.

[10] = Modulated Differential Scanning Calorimetry (MDSC); format: physicochemical; settings: room temperature; from MDSC spectrum
Description: The MDSC technique is a known one, the principles and applications of which are described, for example, in S. R. Rabel et al., Journal of Pharmaceutical and Biomedical Analysis, 21 (1999) 339-345. The tests described in the present patent application have been carried out with an equipment TA DSC Q200.
Such differential calorimetry measurement performed with the MDSC technique have shown an outstanding difference between the initial product and the ultra-micronized product, which difference consists in the appearance, in the product subjected to ultra-micronization, of a positive peak of exothermal transition at a temperature between 101° C. and 103° C., which is distinctive of structures with a high energy content; in the original product, such peak results, on the contrary, to be negative (see FIGS. 3 and 4). The positive exothermal transition peak has to be interpreted as the signal of the heat developed by the transformation of the higher energy content form (formed during the ultra-micronization process) into the native crystalline form with lower energy content.
The net energy transition which characterizes the positive peak at 101-103° C. of FIG. 4 is symptomatic of such stability. Differently, progressive transitions at lower temperatures should have to be noticed.

[11] = Particle size profile, laser particle size analyzer (LALLS); format: physicochemical; settings: ultra-micronization
Description: In order to measure the particle size, a laser particle size analyzer (Malvern Mastersizer) with LALLS (Low Angle Laser Light Scattering) technique using the Fraunhofer theory of computation is employed.

[12] = listed as micronized PEA, 10 mg/kg
[13] = vehicle 100, listed as Micronized PEA
[14] = Time 0 hours (before administration)
[15] = Time 0 (immediately before administration)
[16] = listed as ultra-micronized PEA, 10 mg/kg
[17] = vehicle 100, listed as Ultra-micronized PEA

concentration at 0 h ([4]; Beagle, dog, serum, po, 15 mg/kg, Time 0 (immediately before administration)): 12.4 nM | concentration at 1 h ([4]; Beagle, dog, serum, po, 15 mg/kg, Time 1 h): 22.2 nM | concentration at 2 h ([4]; Beagle, dog, serum, po, 15 mg/kg, Time 2 h): 15.6 nM | concentration at 3 h ([4]; Beagle, dog, serum, po, 15 mg/kg, Time 3 h): 13.4 nM
Structure (SMILES): CCCCCCCCCCCCCCCC(=O)NCCO [Micronized palmitoylethanolamide, palmitoylethanolamide, reference compound]
Effect on the levels of the biological parameters considered ([1]; listed as micronized PEA): only a marginal activity | Hippocampal levels of NO2 ([1]; listed as micronized PEA): 8.2 ± 2.1 μM/μg of proteins from hippocampal homogeneate | Hippocampal tissue levels of IL-1 beta (with immunofluorescence method) (count of cells immunopositive to THE-1 beta) ([1]; listed as micronized PEA): 86.3 ± 7.9 | Expression of protein NGF in the dorsal root ganglia [2, 12]: 50.8 ± 3.0 OD = mm^2 | Expression of protein NGF in the granulomatous tissue [2, 12]: 14.6 ± 2.1 OD = mm^2 | Expression of protein TNF-alpha in the dorsal root ganglia [2, 12]: 151.1 ± 9.6 OD = mm^2 | Expression of protein TNF-alpha ([3]; listed as Micronized PEA): 128.3 ± 10.8 OD = mm^2 | Number of tissue mast cells, percent of vehicle [3, 13]: 86% | Inhibition on the cutaneous reaction induced by Ascaris suum [5, 14]: 0% | Inhibition on the cutaneous reaction induced by Ascaris suum ([5]; Time 1 hours, 10 mg/kg): 9.4 ± 2.6% | Inhibition on the cutaneous reaction induced by Ascaris suum ([5]; Time 2 hours, 10 mg/kg): 9.3 ± 4.7% | Inhibition on the cutaneous reaction induced by Ascaris suum ([5]; Time 4 hours, 10 mg/kg): −2.6 ± 4.2% | Inhibition on the cutaneous reaction induced by Ascaris suum ([5]; Time 8 hours, 10 mg/kg): −0.8 ± 2.0% | Inhibition on the cutaneous reaction induced by Ascaris suum ([5]; Time 24 hours, 10 mg/kg): −0.2 ± 2.0% | Inhibition of the cutaneous reaction ([5]; listed as micronized PEA): almost null | VAS after the treatment of 60 days (average value) ([6]; 600 mg per day for 60 days): 4.22 | VAS before the treatment (average value) [6]: 6.52 | Expression of protein TNF-alpha ([7]; listed as Micronized PEA): 134.8 ± 8.4 OD = mm^2 | Tissue mast cell number, percent of vehicle [7, 13]: 74% | IL-1alpha ([8]; listed as micronized PEA): 25.80 ± 2.0 pg/mg prot | NGF ([8]; listed as micronized PEA): 38.6 ± 3.0 pg/mg prot | TNF-alpha ([8]; listed as micronized PEA): 60.4 ± 3.0 pg/mg prot | Concentration in serum, 2AG [9, 15]: 1.0 pmol/mL | Concentration in serum, 2AG ([9]; Time 1 h, 15 mg/kg): 1.2 pmol/mL | Concentration in serum, 2AG ([9]; Time 2 h, 15 mg/kg): 1.6 pmol/mL | Concentration in serum, 2AG ([9]; Time 3 h, 15 mg/kg): 1.7 pmol/mL | Increase of 2-AG in blood compared to the basal levels [9]: about 70%

Stability of the high energy crystalline form [10]: substantially stable at room temperature | Concentration in serum, PEA [4, 15]: 12.4 nM | Concentration in serum, PEA ([4]; Time 1 h, 15 mg/kg): 22.4 nM | Concentration in serum, PEA ([4]; Time 2 h, 15 mg/kg): 16.2 nM | Concentration in serum, PEA ([4]; Time 3 h, 15 mg/kg): 14.1 nM | Particle size <0.6 microns [11]: 2.0% | Particle size <1 microns [11]: 14.7% | Particle size <2 microns [11]: 59.6% | Particle size <6 microns [11]: 99.9% | Particle size <10 microns [11]: 100% | Particle size >14 microns [11]: Absent
Structure (SMILES): CCCCCCCCCCCCCCCC(=O)NCCO [Ultra-micronized palmitoylethanolamide, palmitoylethanolamide]
Effect on the levels of the biological parameters considered ([1]; listed as ultra-micronized PEA): high decrease | Hippocampal levels of NO2 ([1]; listed as ultra-micronized PEA): 3.1 ± 0.6 μM/μg of proteins from hippocampal homogeneate | Hippocampal tissue levels of IL-1 beta (with immunofluorescence method) (count of cells immunopositive to THE-1 beta) ([1]; listed as ultra-micronized PEA): 21.8 ± 5.4 | Expression of protein NGF in the dorsal root ganglia [2]: 43.8 ± 3.1 OD = mm^2 | Expression of protein NGF in the granulomatous tissue [2, 16]: 6.1 ± 1.6 OD = mm^2 | Expression of protein TNF-alpha in the dorsal root ganglia [2, 16]: 96.6 ± 10.4 OD = mm^2 | Decrease of NGF levels ([2]; compared to the micronized PEA): much more marked decrease | Expression of protein TNF-alpha ([3]; listed as Ultra-micronized PEA): 75.6 ± 12.3 OD = mm^2 | Number of tissue mast cells, percent of vehicle [3, 17]: 41% | Inhibition on the cutaneous reaction induced by Ascaris suum [5, 14]: 0% | Inhibition on the cutaneous reaction induced by Ascaris suum ([5]; Time 1 hours, 10 mg/kg): 20.8 ± 5.4% | Inhibition on the cutaneous reaction induced by Ascaris suum ([5]; Time 2 hours, 10 mg/kg): 32.4 ± 4.7% | Inhibition on the cutaneous reaction induced by Ascaris suum ([5]; Time 4 hours, 10 mg/kg): 26.0 ± 4.9% | Inhibition on the cutaneous reaction induced by Ascaris suum ([5]; Time 8 hours, 10 mg/kg): 15.1 ± 9.6% | Inhibition on the cutaneous reaction induced by Ascaris suum ([5]; Time 24 hours, 10 mg/kg): 4.5 ± 6.7% | Inhibition of the cutaneous reaction ([5]; listed as ultra-micronized PEA): above 20% | VAS after the treatment of 60 days (average value) ([6]; 600 mg per day for 60 days): 2.85 | Effect on pain (VAS) ([6]; 600 mg per day for 60 days, Wilcoxon p=0.001): marked decrease of the pain | VAS before the treatment (average value) [6]: 6.52 | Expression of protein TNF-alpha ([7]; listed as Ultra-micronized PEA): 62.9 ± 11.8 OD = mm^2 | Tissue mast cell number, percent of vehicle [7, 17]: 26% | Effect on all the biochemical parameters under investigation ([8]; CCI, day 10): substantial normalization | IL-1alpha ([8]; listed as ultra-micronized PEA): 2.50 ± 0.02 pg/mg prot | NGF ([8]; listed as ultra-micronized PEA): 10.2 ± 2.0 pg/mg prot | TNF-alpha ([8]; listed as ultra-micronized PEA): 44.1 ± 2.8 pg/mg prot | Concentration in serum, 2AG [9, 15]: 1.0 pmol/mL | Concentration in serum, 2AG ([9]; Time 1 h, 15 mg/kg): 3.6 pmol/mL | Concentration in serum, 2AG ([9]; Time 2 h, 15 mg/kg): 4.2 pmol/mL | Concentration in serum, 2AG ([9]; Time 3 h, 15 mg/kg): 4.7 pmol/mL | Increase of 2-AG in blood compared to the basal levels [9]: higher than 400%
